Data on seven compounds can be found in patent publication US20130012466A1 (priority 2006, published 2013).

The test system of series [1] is SK-OV-3. The series is described as follows: Cytotoxicity assay (cell titer-glo and calcein AM), SK-OV-3.
Series [2] concerns Hep3B. As to the kind of experiment: Cytotoxicity assay (cell titer-glo and calcein AM), Hep3B.
Series [3] has as its system NCI-H460. As to the kind of experiment: Cytotoxicity assay (cell titer-glo and calcein AM), NCI-H460.
For series [4], the system named is tubulin. The series is described as follows: In vitro tubulin polymerization assay (fluorescence-based). Type of series: biochemical. To be noted: for effect on tubulin polymerization / microtubules: tested in duplicate on at least two days. Here is the method:
In vitro tubulin polymerization assays were performed using a fluorescence-based assay (Cytoskeleton, Inc., Denver, Colo.). […] Aliquots (5 μL) of each compound or control were added to a 96-well black half area plate (Corning Costar, Inc.) pre-warmed to 37° C. Cold tubulin reaction mix (50 μL 1× Buffer—80 mM piperazine-N,N′-bis[2-ethanesulfonic acid]sequisodium salt; 2.0 mM magnesium chloride; 0.5 mM ethylene glycol-bis[β-amino-ethyl ether) N,N,N′,N′-tetra-acetic acid, pH 6.9, 10 μM fluorescent reporter; 20% tubulin glycerol buffer—80 mM piperazine-N,N′-bis[2-ethanesulfonic acid] sequisodium salt; 2.0 mM magnesium chloride; 0.5 mM ethylene glycol-bis(β-amino-ethyl ether) N,N,N′,N′-tetra-acetic acid, 60% v/v glycerol, pH 6.9, 1 mM GTP; and 2 mg mL^−1 tubulin stock) was added to each of the compounds. […] Polymerization curves were generated in Excel after background correction and the effects of test compounds were compared to controls.
Library members that accelerated the rate of tubulin polymerization were deemed microtubule stabilizers, whereas compounds that decelerated the rate of tubulin polymerization were deemed microtubule de-stabilizers.

For series [5], the system named is SF-268. The series is described as follows: Cytotoxicity assay (cell titer-glo and calcein AM), SF-268.
The subject of series [6] is A549. The series is described as follows: Cytotoxicity assay (cell titer-glo and calcein AM), A549.
Series [7] has as its system Du145. As to the kind of experiment: Cytotoxicity assay (cell titer-glo and calcein AM), Du145.
Series [8] has as its system mouse mammary normal epithelial control cell line. The series is described as follows: Cytotoxicity assay, normal control cell line.
In series [9] the test system is ADR-RES. As to the kind of experiment: Cytotoxicity assay (cell titer-glo and calcein AM), ADR-RES. The conditions noted are these: NCI/ADR RES, % error in parentheses.
Series [10] relates to MCF7. As to the kind of experiment: Cytotoxicity assay (cell titer-glo and calcein AM), MCF7.
The subject of series [11] is A549 cells. As to the kind of experiment: Drug combination study with colchicine (Chou-Talalay combination index). To be noted: for plus colchicine, mean CI / plus colchicine, median CI: combination index, colchicine held at IC10, A549 cells; for interaction with colchicine: drug combination, A549 cells, Chou-Talalay.
The subject of series [12] is A549 cells. The series is described as follows: Drug combination study with paclitaxel (Chou-Talalay combination index).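 For all read-outs here: combination indexes averaged only over points where fraction affected exceeded 0.2, with each synergy experiment repeated at least three times.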 To be noted: for plus paclitaxel, mean CI / plus paclitaxel, median CI: combination index, paclitaxel held at IC10, A549 cells; for interaction with paclitaxel/taxol: drug combination, A549 cells, Chou-Talalay.
Setting [13] is: read-out: Cytotoxicity IC50, SK-OV-3, CTG, SK-OV-3, CTG (cell titer-glo) readout, % error in parentheses.
Where [14] appears, read: read-out: Cytotoxicity IC50, SK-OV-3, calcein, SK-OV-3, calcein AM readout, % error in parentheses.
[15] abbreviates: read-out: Cytotoxicity IC50, Hep 3B, CTG, Hep 3B, CTG (cell titer-glo) readout, % error in parentheses.
The mark [16] stands for this setting: read-out: Cytotoxicity IC50, Hep 3B, calcein, Hep 3B, calcein AM readout, % error in parentheses.
The mark [17] stands for this setting: read-out: Cytotoxicity IC50, NmuMG, CTG, CTG (cell titer-glo) readout, % error in parentheses.
Setting [18] is: read-out: Cytotoxicity IC50, NmuMG, calcein, calcein AM readout, % error in parentheses.
Setting [19] is: read-out: Cytotoxicity IC50, NCI-H460, CTG, NCI-H460, CTG (cell titer-glo) readout, % error in parentheses.
[20] abbreviates: read-out: Cytotoxicity IC50, NCI-H460, calcein, NCI-H460, calcein AM readout, % error in parentheses.
Where [21] appears, read: read-out: Cytotoxicity IC50, NCI/ADR RES, CTG, CTG (cell titer-glo) readout.
Setting [22] is: read-out: Cytotoxicity IC50, NCI/ADR RES, calcein, calcein AM readout.
[23] abbreviates: read-out: Cytotoxicity IC50, SF-268, CTG, SF-268, CTG (cell titer-glo) readout, % error in parentheses.
Setting [24] is: read-out: Cytotoxicity IC50, SF-268, calcein, SF-268, calcein AM readout, % error in parentheses.
Setting [25] is: read-out: Cytotoxicity IC50, A549, CTG, A549, CTG (cell titer-glo) readout, % error in parentheses.
[26] abbreviates: read-out: Cytotoxicity IC50, A549, calcein, A549, calcein AM readout, % error in parentheses.
Setting [27] is: read-out: Cytotoxicity IC50, MCF7, CTG, CTG (cell titer-glo) readout, % error in parentheses.
Where [28] appears, read: read-out: Cytotoxicity IC50, MCF7, calcein, calcein AM readout, % error in parentheses.
[29] abbreviates: read-out: Cytotoxicity IC50, Du145, CTG, Du145, CTG (cell titer-glo) readout, % error in parentheses.
The mark [30] stands for this setting: read-out: Cytotoxicity IC50, Du145, calcein, Du145, calcein AM readout, % error in parentheses.

Like-named read-outs stand apart in the source and are kept apart here.

Regarding `COc1cccc2c1C(=O)c1c(O)c3c(c(O)c1C2=O)C[C@@](O)(C(=O)CO)C[C@@H]3O[C@H]1C[C@H](N)[C@H](O)[C@H](C)O1` [doxorubicin, reference compound], the IC50 in series [1] (Homo sapiens, SK-OV-3, read-out: IC50 (SK-OV-3)) is 621 nM; in series [2] (Homo sapiens, Hep3B, read-out: IC50 (Hep3B)), 268 nM; in series [3] (Homo sapiens, NCI-H460, read-out: IC50 (NCI-H460)), 1000 nM; in series [5] (Homo sapiens, SF-268, read-out: IC50 (SF-268)) it was 385 nM; in [6] (Homo sapiens, A549, read-out: IC50 (A549)), 770 nM; in series [7] (Homo sapiens, DU-145, read-out: IC50 (Du145)), 339 nM. In addition, the tubulin polymeriz. entry in series [4] is given as “no effect”. For the same compound, in series [4], the “effect on tubulin polymerization / microtubules” value is on record as “no apparent effect”.
Consider 6-deoxy-6-acyl-D-galactoside [Col56], for which the IC50 is 901 nM in series [1] (setting [13]); 1180 nM in series [1] (setting [14]); 1480 nM in [2] (setting [15]); 2230 nM in [2] (setting [16]); 1520 nM in series [8] (setting [17]); 1490 nM in series [8] (setting [18]). Besides, the IC50 in series [3] (setting [19]) was 1550 nM; in [3] (setting [20]), 1090 nM; in series [9] (setting [21]) it was 1160 nM; in series [9] (setting [22]), 994 nM; in series [5] (setting [23]) it was 1760 nM; in series [5] (setting [24]) it was over 1000 nM. Besides, the IC50 in series [6] (setting [25]) was 1910 nM; in [6] (setting [26]), 2090 nM; in series [10] (setting [27]), 3130 nM; in series [10] (setting [28]) it was 812 nM; in [7] (setting [29]), 1150 nM; in series [7] (setting [30]), 1090 nM. For the same compound, the tubulin polymeriz. entry in series [4] was “no effect”. The “effect on tubulin polymerization / microtubules” value in series [4] was “no apparent effect”.
As for `COc1cc2c(c(OC)c1OC)-c1ccc(OC)c(=O)cc1[C@@H](N)CC2` [Col 6, deacetyl colchicine], in series [11], the “plus colchicine, mean CI” value is 2.32; the “plus colchicine, median CI” value was 1.96; the “interaction with colchicine” value was “antagonism”. Further, in series [12], the “plus paclitaxel, mean CI” value amounted to 0.57; the “plus paclitaxel, median CI” value stood at 0.20; the “interaction with paclitaxel/taxol” value was “synergy”.
In the case of `COc1cc2c(c(OC)c1OC)-c1ccc(OC)c(=O)cc1[C@@H](NC(=O)CN(OC)[C@@H]1O[C@H](CO)[C@@H](N=[N+]=[N-])[C@H](O)[C@H]1O)CC2` [Col44, 4-deoxy-4-azido-D-glucoside], the IC50 in series [1] (setting [13]) is over 1000 nM; in [1] (setting [14]), over 1000 nM; in series [2] (setting [15]) it was 453 nM; in series [2] (setting [16]), 671 nM; in series [8] (setting [17]), 1420 nM; in [8] (setting [18]) it was 3660 nM. Also, the IC50 in series [3] (setting [19]) was over 1000 nM; in [3] (setting [20]), over 1000 nM; in [9] (setting [21]) it was over 1000 nM; in series [9] (setting [22]), over 1000 nM; in [5] (setting [23]), 229 nM; in series [5] (setting [24]) it was 412 nM. In addition, the IC50 was 315 nM in [6] (setting [25]); 649 nM in series [6] (setting [26]); 596 nM in [10] (setting [27]); 676 nM in series [10] (setting [28]); over 1000 nM in series [7] (setting [29]); over 1000 nM in [7] (setting [30]). In [4], the “effect on tubulin polymerization / microtubules” value is “destabilized microtubules”.
Turning to `COc1cc2c(c(OC)c1OC)-c1ccc(OC)c(=O)cc1[C@@H](NC(=O)CN(OC)[C@H]1C[C@@H](O)[C@H](O)[C@@H](CO)O1)CC2` [Col16, 2-deoxy-D-glucoside], the IC50 in series [1] (setting [13]) is 432 nM; in [1] (setting [14]), 625 nM; in series [2] (setting [15]) it was 1920 nM; in [2] (setting [16]), 1440 nM; in series [8] (setting [17]), 1610 nM; in series [8] (setting [18]), 4420 nM. Moreover, the IC50 in [3] (setting [19]) was 946 nM; in series [3] (setting [20]), 808 nM; in series [9] (setting [21]), 1680 nM; in series [9] (setting [22]), 899 nM; in series [5] (setting [23]), 1070 nM; in [5] (setting [24]), 1540 nM. In addition, the IC50 in [6] (setting [25]) is 3900 nM; in [6] (setting [26]), 1680 nM; in [10] (setting [27]), 2650 nM; in [10] (setting [28]) it was 1920 nM; in series [7] (setting [29]) it was 705 nM; in series [7] (setting [30]), 910 nM. Also, in series [4], the “effect on tubulin polymerization / microtubules” value is given as “destabilized microtubules”. The “plus colchicine, mean CI” value in [11] is 5.97. Also, the “plus colchicine, median CI” value in series [11] came out at 5.33. Also, the “interaction with colchicine” value in series [11] is reported as “antagonism”. Further, in series [12], the “plus paclitaxel, mean CI” value amounted to 0.40. In addition, the “plus paclitaxel, median CI” value in [12] came to 0.11. Moreover, in series [12], the “interaction with paclitaxel/taxol” value is “synergy”.
Take `COc1cc2c(c(OC)c1OC)-c1ccc(OC)c(=O)cc1[C@@H](NC(=O)CN(OC)[C@@H]1O[C@H](CO)[C@@H](O[C@H]3O[C@H](CO)[C@@H](O)[C@H](O)[C@H]3O)[C@H](O)[C@H]1O)CC2` [Col38, D-maltoside]: the IC50 in series [1] (setting [13]) was 252 nM; in [1] (setting [14]) it was 316 nM; in series [2] (setting [15]) it was 229 nM; in series [2] (setting [16]) it was 1390 nM; in series [8] (setting [17]) it was 976 nM; in [8] (setting [18]), 875 nM. Besides, the IC50 in series [3] (setting [19]) was 112 nM; in [3] (setting [20]), 487 nM; in [9] (setting [21]), 199 nM; in series [9] (setting [22]), 173 nM; in [5] (setting [23]), 160 nM; in series [5] (setting [24]), 319 nM. Besides, the IC50 in [6] (setting [25]) is 244 nM; in series [6] (setting [26]), 508 nM; in [10] (setting [27]) it was 291 nM; in series [7] (setting [29]), 215 nM; in series [7] (setting [30]), 342 nM. Besides, in series [4], the “effect on tubulin polymerization / microtubules” value is “destabilized microtubules”.
Regarding `COc1cc2c(c(OC)c1OC)-c1ccc(OC)c(=O)cc1[C@@H](NC(=O)CN(OC)[C@@H]1O[C@H](C(=O)O)[C@H](O)[C@H](O)[C@H]1O)CC2` [Col18, D-Galacturonoside], the IC50 in series [1] (setting [13]) is 1080 nM; in series [1] (setting [14]), 1070 nM; in series [2] (setting [15]), 2000 nM; in series [2] (setting [16]), 2270 nM; in [8] (setting [17]), 2090 nM; in series [8] (setting [18]), 2620 nM. For the same compound, the IC50 in [3] (setting [19]) is 993 nM; in series [3] (setting [20]) it was 1130 nM; in [9] (setting [21]) it was 1110 nM; in series [9] (setting [22]), 828 nM; in series [5] (setting [23]) it was 834 nM; in series [5] (setting [24]) it was 1110 nM. The IC50 in [6] (setting [25]) was 1100 nM; in [6] (setting [26]), 1070 nM; in [10] (setting [27]), 1160 nM; in series [10] (setting [28]), 1490 nM; in series [7] (setting [29]), 1120 nM; in [7] (setting [30]) it was 1190 nM. Besides, the “effect on tubulin polymerization / microtubules” value in [4] is recorded as “no effect”.
